# Laboratory results: patent publication US11673910B2, “Macrolides with modified desosamine sugars and uses thereof” (Zikani Therapeutics, Inc., priority 2017, dated 2023)
# Tests used:
# Assay type in all cases: cell-based
# [1] = tested on: A. baumannii strain MP-15; experiment: Broth dilution MIC determination (CLSI) against A. baumannii strain MP-15; conditions: Acinetobacter baumannii, MP15
# Outline: (§1)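 MICs were determined by CLSI standard broth dilution. Values are binned: "+++" ≤4 mg/L, "++" ≥8 and <32 mg/L, "+" ≥32 mg/L.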
# S. aureus strain MP-12 = experiment: Broth dilution MIC determination (CLSI) against S. aureus strain MP-12; conditions: Staphylococcus aureus, MP12, strain MP-12
# Outline: as §1
# E. coli strain MP-4 = experiment: Broth dilution MIC determination (CLSI) against E. coli strain MP-4; conditions: Escherichia coli, MP4
# Outline: as §1
# [2] = tested on: P. aeruginosa strain MP-3; experiment: Broth dilution MIC determination (CLSI) against P. aeruginosa strain MP-3; conditions: Pseudomonas aeruginosa, MP3
# Outline: as §1
# [3] = tested on: K. pneumoniae strain MP-548; experiment: Broth dilution MIC determination (CLSI) against K. pneumoniae strain MP-548; conditions: Klebsiella pneumoniae, MP548
# Outline: as §1
MIC [1] [µg/mL],MIC (S. aureus strain MP-12) [µg/mL],MIC (E. coli strain MP-4) [µg/mL],MIC [2] [µg/mL],MIC [3] [µg/mL],Compound
≥ 32,8 to 32,8 to 32,≥ 32,≥ 32,CC[C@H]1OC(=O)C(C)C(=O)[C@H](C)[C@@H](O[C@@H]2OC(CNc3cccc(F)c3)CC(N(C)C)C2O)[C@](C)(OC)C[C@@H](C)CN[C@H](C)[C@H]2NC(=O)O[C@@]21C (stereo partly shown) [Compound 48]
≥ 32,≥ 32,8 to 32,≥ 32,≥ 32,CC[C@H]1OC(=O)C(C)C(=O)[C@H](C)[C@@H](O[C@@H]2OC(CNCC3COC3)CC(N(C)C)C2O)[C@](C)(OC)C[C@@H](C)CN[C@H](C)[C@H]2NC(=O)O[C@@]21C (stereo partly shown) [Compound 56]
≥ 32,≥ 32,≥ 32,≥ 32,≥ 32,CC[C@H]1OC(=O)C(C)C(=O)[C@H](C)[C@@H](O[C@@H]2OC(CNCc3ccn(C)n3)CC(N(C)C)C2O)[C@](C)(OC)C[C@@H](C)CN[C@H](C)[C@H]2NC(=O)O[C@@]21C (stereo partly shown) [Compound 21]
≥ 32,≥ 32,≤ 4,≥ 32,≥ 32,"CC[C@H]1OC(=O)C(C)C(=O)[C@H](C)[C@@H](OC2OC(CN(C)CC3CC3)CC(N(C)C)C2O)[C@](C)(OC)C[C@@H](C)CN[C@H](C)[C@H]2NC(=O)O[C@@]21C (stereo partly shown) [Compound 153, 3-Descladinosyl-3-oxo-6-O-methyl-N9a-desmethyl-11,12-dideoxy-12,11-(oxycarbonylimino)-6′-methylcyclopropylmethylamino Azithromycin]"
≥ 32,≥ 32,≤ 4,≥ 32,≥ 32,"CC[C@H]1OC(=O)C(C)C(=O)[C@H](C)[C@@H](OC2OC(CN3CCC(C)(C)CC3)CC(N(C)C)C2O)[C@](C)(OC)C[C@@H](C)CN[C@H](C)[C@H]2NC(=O)O[C@@]21C (stereo partly shown) [Compound 138, 3-Desdadinosyl-3-oxo-6-O-methyl-N9a-desmethyl-11,12-dideoxy-12,11-(oxycarbonylimino)-6′-(4″,4″-dimethylpiperidin-1-yl) Azithromycin]"
≥ 32,≤ 4,≥ 32,≥ 32,≥ 32,CC[C@H]1OC(=O)[C@@](C)(F)C(=O)[C@H](C)[C@@H](O[C@@H]2OC(COCCO)CC(N(C)C)C2O)[C@](C)(OC)C[C@@H](C)C(=O)[C@H](C)[C@H]2NC(=O)O[C@@]21C (stereo partly shown) [Compound 103]
≥ 32,≥ 32,≤ 4,≥ 32,8 to 32,"CC[C@H]1OC(=O)C(C)C(=O)[C@H](C)[C@@H](O[C@@H]2O[C@H]([C@H](C)N3CCCCC3)CC(N(C)C)[C@H]2O)[C@](C)(OC)C[C@@H](C)CN[C@H](C)[C@H]2NC(=O)O[C@@]21C (stereo partly drawn) [Compound 179, 3-Descladinosyl-3-oxo-6-O-methyl-N9a-desmethyl-11,12-dideoxy-12,11-(oxycarbonylimino)-6′-((S)-1-(piperidin-1-yl)ethyl) Azithromycin]"
≥ 32,≥ 32,8 to 32,≥ 32,≥ 32,CC[C@H]1OC(=O)C(C)C(=O)[C@H](C)[C@@H](O[C@@H]2OC(CN(C)Cc3ccc(F)cc3)CC(N(C)C)C2O)[C@](C)(OC)C[C@@H](C)CN[C@H](C)[C@H]2NC(=O)O[C@@]21C (stereo partly shown) [Compound 34]
≥ 32,≥ 32,≥ 32,≥ 32,≥ 32,"CO[C@]1(C)C[C@@H](C)CN[C@H](C)[C@H]2NC(=O)O[C@]2(C)[C@@H](C)OC(=O)C(C)C(=O)[C@H](C)[C@H]1OC1OC(CN(C)CC2CC2)CC(N(C)C)C1O (stereo partly shown) [Compound 156, 3-Desdadinosyl-3-oxo-6-O-methyl-N9a-desmethyl-11,12-dideoxy-12,11-(oxycarbonylimino)-6′-methylcyclopropylmethyl-13-methyl Azithromycin]"
8 to 32,≥ 32,≤ 4,≥ 32,8 to 32,"CC[C@H]1OC(=O)C(C)C(=O)[C@H](C)[C@@H](OC2OC(CN3CC4CC4C3)CC(N(C)C)C2O)[C@](C)(OC)C[C@@H](C)CN[C@H](C)[C@H]2NC(=O)O[C@@]21C (stereo partly shown) [Compound 137, 3-Descladinosyl-3-oxo-6-O-methyl-N9a-desmethyl-11,12-dideoxy-12,11-(oxycarbonylimino)-6′-azabicyclo[3.1.0]hexan-3″-ylamino Azithromycin]"
≥ 32,≥ 32,≤ 4,≥ 32,8 to 32,"CC[C@H]1OC(=O)C(C)C(=O)[C@H](C)[C@@H](OC2OC(CN(C)CC)CC(N(C)C)C2O)[C@](C)(OC)C[C@@H](C)CN[C@H](C)[C@H]2NC(=O)O[C@@]21C (stereo partly shown) [Compound 151, 3-Descladinosyl-3-oxo-6-O-methyl-N9a-desmethyl-11,12-dideoxy-12,11-(oxycarbonylimino)-6′-methylethylamino Azithromycin]"
≥ 32,≥ 32,8 to 32,≥ 32,≥ 32,"CC[C@H]1OC(=O)C(C)C(=O)[C@H](C)[C@@H](O[C@@H]2O[C@H](C(C)N(CC3CC3)CC3CC3)CC(N(C)C)[C@H]2O)[C@](C)(OC)C[C@@H](C)CN[C@H](C)[C@H]2NC(=O)O[C@@]21C (stereo partly drawn) [Compound 177, 3-Descladinosyl-3-oxo-6-O-methyl-N9a-desmethyl-11,12-dideoxy-12,11-(oxycarbonylimino)-6′-((R,S)-(dicyclopropylmethylamino)ethyl) Azithromycin]"
≥ 32,≥ 32,≥ 32,≥ 32,≥ 32,"CC[C@H]1OC(=O)C(C)C(=O)[C@H](C)[C@@H](OC2OC(C(=O)N(C)C3CC3)CC(N(C)C)C2O)[C@](C)(OC)C[C@@H](C)CN[C@H](C)[C@H]2NC(=O)O[C@@]21C (stereo partly shown) [Compound 168, 3-Descladinosyl-3-oxo-6-O-methyl-N9a-desmethyl-11,12-dideoxy-12,11-(oxycarbonylimino)-5′-desmethyl-5′-(N,N-cyclopropyl(methyl)carboxamido) Azithromycin]"
≥ 32,≥ 32,≤ 4,≥ 32,≥ 32,CC[C@H]1OC(=O)C(C)C(=O)[C@H](C)[C@@H](O[C@@H]2OC(CNCc3cccc(C#N)c3)CC(N(C)C)C2O)[C@](C)(OC)C[C@@H](C)CN[C@H](C)[C@H]2NC(=O)O[C@@]21C (stereo partly shown) [Compound 41]
≥ 32,≥ 32,≤ 4,≥ 32,8 to 32,"CC[C@H]1OC(=O)C(C)C(=O)[C@H](C)[C@@H](OC2OC(CN3CCCCCC3)CC(N(C)C)C2O)[C@](C)(OC)C[C@@H](C)CN[C@H](C)[C@H]2NC(=O)O[C@@]21C (stereo partly shown) [Compound 124, 3-Desdadinosyl-3-oxo-6-O-methyl-N9a-desmethyl-11,12-dideoxy-12,11-(oxycarbonylimino)-6′-(1-azepanyl) Azithromycin]"
≥ 32,≥ 32,≥ 32,≥ 32,≥ 32,CC[C@H]1OC(=O)C(C)C(=O)[C@H](C)[C@@H](O[C@@H]2OC(CNCc3ccc(S(C)(=O)=O)cc3)CC(N(C)C)C2O)[C@](C)(OC)C[C@@H](C)CN[C@H](C)[C@H]2NC(=O)O[C@@]21C (stereo partly shown) [Compound 45]
≥ 32,≥ 32,≥ 32,≥ 32,≥ 32,CC[C@H]1OC(=O)C(C)C(=O)[C@H](C)[C@@H](O[C@@H]2OC(CNCc3ccc(C(C)(C)C)cc3)CC(N(C)C)C2O)[C@](C)(OC)C[C@@H](C)CN[C@H](C)[C@H]2NC(=O)O[C@@]21C (stereo partly shown) [Compound 37]
≥ 32,≥ 32,8 to 32,≥ 32,≥ 32,"CC[C@H]1OC(=O)C(C)C(=O)[C@H](C)[C@@H](OC2OC(C(=O)NC)CC(N(C)C)C2O)[C@](C)(OC)C[C@@H](C)CN[C@H](C)[C@H]2NC(=O)O[C@@]21C (stereo partly shown) [Compound 166, 3-Descladinosyl-3-oxo-6-O-methyl-N9a-desmethyl-11,12-dideoxy-12,11-(oxycarbonylimino)-5′-desmethyl-5′-(N-methylcarboxamido) Azithromycin]"
≥ 32,≥ 32,≥ 32,≥ 32,≥ 32,CC[C@H]1OC(=O)C(C)C(=O)[C@H](C)[C@@H](O[C@@H]2OC(CNCc3nccn3C)CC(N(C)C)C2O)[C@](C)(OC)C[C@@H](C)CN[C@H](C)[C@H]2NC(=O)O[C@@]21C (stereo partly shown) [Compound 25]

Compound,MIC [1] [µg/mL],MIC (S. aureus strain MP-12) [µg/mL],MIC (E. coli strain MP-4) [µg/mL],MIC [2] [µg/mL],MIC [3] [µg/mL]
CC[C@H]1OC(=O)[C@@]2(C)CCO[C@](C)(C[C@@H](C)CN[C@H](C)[C@H]3NC(=O)O[C@@]31C)[C@H](O[C@@H]1O[C@H](CN3CCCCC3)C[C@H](N(C)C)[C@H]1O)[C@@H](C)C2=O [Compound 199],≥ 32,≥ 32,≥ 32,≥ 32,≥ 32
CC[C@H]1OC(=O)[C@@]2(C)CCO[C@](C)(C[C@@H](C)CN[C@H](C)[C@H]3NC(=O)O[C@@]31C)[C@H](O[C@@H]1O[C@H](CNCC3CC3)C[C@H](N(C)C)[C@H]1O)[C@@H](C)C2=O [Compound 197],≥ 32,≥ 32,≥ 32,≥ 32,≥ 32
C=CC1CC(N(C)C)C(O)[C@H](O[C@@H]2[C@@H](C)C(=O)[C@]3(C)CCOC2(C)C[C@@H](C)CN[C@H](C)[C@H]2NC(=O)O[C@]2(C)[C@@H](CC)OC3=O)O1 (stereo partly shown) [Compound 211],≤ 4,≤ 4,≤ 4,≥ 32,≤ 4
CC[C@H]1OC(=O)[C@@]2(C)CCO[C@](C)(C[C@@H](C)CN[C@H](C)[C@H]3NC(=O)O[C@@]31C)[C@H](O[C@@H]1O[C@H](CNCc3cccnc3)C[C@H](N(C)C)[C@H]1O)[C@@H](C)C2=O [Compound 201],≥ 32,≥ 32,≥ 32,≥ 32,≥ 32
